Laboratory results published in patent publication US20260256792A1, “TREATMENT OF CHRONIC SPONTANEOUS URTICARIA BY ADMINISTERING (R)-2-[3-[4-AMINO-3-(2-FLUORO-4-PHENOXY-PHENYL)PYRAZOLO[3,4-D]PYRIMIDIN-1-YL]PIPERIDINE-1-CARBONYL]-4-METHYL-4-[4-(OXETAN-3-YL)PIPERAZIN-1-YL]PENT-2-ENENITRILE” (priority 2023, published 2026).

System: angioedema in CSU patients
Experiment: Phase 2 CSU study: angioedema activity score over 7 days (AAS7)
Type: in vivo, human
Conditions: 400 mg BID; for AAS7 % Change difference for rilzabrutinib vs. placebo LS Mean (95% CI) / AAS7 % Change from baseline LS Mean (SE) / AAS7 Change difference for rilzabrutinib vs. placebo LS Mean (95% CI) / AAS7 Change from baseline LS Mean (SE) / AAS7 Post-baseline Mean (SD) / AAS7 = 0, Non-responder n (%) / AAS7 = 0, OR (95% CI) for rilzabrutinib vs. placebo / AAS7 = 0, RRD (%) for rilzabrutinib vs. placebo (95% CI) / Participants with AAS7 = 0, Responder n (%): angioedema at baseline; for Non-responder n (%), AAS7 = 0 / RRD (%) for rilzabrutinib vs. placebo (95% CI), AAS7 = 0 / Responder n (%), AAS7 = 0 / OR (95% CI) for rilzabrutinib vs. placebo, AAS7 = 0: outlier removed
Excerpt: The study comprises a 12 week, randomized, double-blind, placebo-controlled, multi-center, dose-ranging efficacy and safety phase, followed by a 40 week open label extension (OLE) phase (see FIG. 1). The study consists of three phases and an optional OLE phase. […] The weekly angioedema activity score (AAS7) was proposed as a tertiary endpoint. […] Patients were to complete the AAS using the e-diary. The e-diary was to be used once daily on the same time of each day recording of participant's answers to the angioedema activity score over 7 days (AAS7) questionnaire.

## CC(C)(C=C(C#N)C(=O)N1CCC[C@@H](n2nc(-c3ccc(Oc4ccccc4)cc3F)c3c(N)ncnc32)C1)N1CCN(C2COC2)CC1 [rilzabrutinib, (R)-2-[3-[4-amino-3-(2-fluoro-4-phenoxy-phenyl)pyrazolo[3,4-d]pyrimidin-1-yl]piperidine-1-carbonyl]-4-methyl-4-[4-(oxetan-3-yl)piperazin-1-yl]pent-2-enenitrile]
Week 1, ITT
  AAS7 % Change difference for rilzabrutinib vs. placebo LS Mean (95% CI): −40.37 (−70.92, −9.83) %
  AAS7 % Change from baseline LS Mean (SE): −60.34 (9.85) %
  AAS7 Change difference for rilzabrutinib vs. placebo LS Mean (95% CI): −9.84 (−22.84, 3.16)
  AAS7 Change from baseline LS Mean (SE): −24.34 (4.19)
  AAS7 Post-baseline Mean (SD): 23.35 (30.86)
Week 1, omalizumab-naïve
  Non-responder n (%), AAS7 = 0: 16 (45.7) n (%)
  RRD (%) for rilzabrutinib vs. placebo (95% CI), AAS7 = 0: 23.4 %
  Responder n (%), AAS7 = 0: 19 (54.3) n (%)
  AAS7 % Change difference for rilzabrutinib vs. placebo LS Mean (95% CI): −42.17 (−75.41, −8.93) %
  AAS7 = 0, Non-responder n (%): 15 (57.7) n (%)
  AAS7 = 0, OR (95% CI) for rilzabrutinib vs. placebo: 20.850
  AAS7 = 0, RRD (%) for rilzabrutinib vs. placebo (95% CI): 35.1 %
  AAS7 Change difference for rilzabrutinib vs. placebo LS Mean (95% CI): −9.69 (−23.74, 4.37)
  AAS7 Change from baseline LS Mean (SE): −23.46 (4.42)
  AAS7 Post-baseline Mean (SD): 25.15 (31.33)
  Participants with AAS7 = 0, Responder n (%): 11 (42.3) n (%)
Week 2, ITT
  AAS7 % Change difference for rilzabrutinib vs. placebo LS Mean (95% CI): −8.15 (−40.12, 23.82) %
  AAS7 % Change from baseline LS Mean (SE): −49.52 (12.60) %
  AAS7 Change difference for rilzabrutinib vs. placebo LS Mean (95% CI): −5.96 (−17.22, 5.30)
  AAS7 Change from baseline LS Mean (SE): −26.86 (4.43)
  AAS7 Post-baseline Mean (SD): 22.75 (28.74)
Week 2, omalizumab-naïve
  Non-responder n (%), AAS7 = 0: 18 (51.4) n (%)
  OR (95% CI) for rilzabrutinib vs. placebo, AAS7 = 0: 1.366
  RRD (%) for rilzabrutinib vs. placebo (95% CI), AAS7 = 0: 8.2 %
  Responder n (%), AAS7 = 0: 17 (48.6) n (%)
  AAS7 % Change difference for rilzabrutinib vs. placebo LS Mean (95% CI): −9.47 (−44.02, 25.08) %
  AAS7 % Change from baseline LS Mean (SE): −46.69 (13.31) %
  AAS7 = 0, Non-responder n (%): 17 (65.4) n (%)
  AAS7 = 0, OR (95% CI) for rilzabrutinib vs. placebo: 2.012
  AAS7 = 0, RRD (%) for rilzabrutinib vs. placebo (95% CI): 14.6 %
  AAS7 Post-baseline Mean (SD): 24.57 (29.12)
  Participants with AAS7 = 0, Responder n (%): 9 (34.6) n (%)
Week 3, ITT
  AAS7 % Change difference for rilzabrutinib vs. placebo LS Mean (95% CI): −7.33 (−47.50, 32.83) %
  AAS7 % Change from baseline LS Mean (SE): −55.85 (15.71) %
  AAS7 Change difference for rilzabrutinib vs. placebo LS Mean (95% CI): −11.42 (−22.95, 0.12)
  AAS7 Change from baseline LS Mean (SE): −35.57 (4.51)
  AAS7 Post-baseline Mean (SD): 14.81 (20.54)
Week 3, omalizumab-naïve
  Non-responder n (%), AAS7 = 0: 15 (42.9) n (%)
  OR (95% CI) for rilzabrutinib vs. placebo, AAS7 = 0: 2.357
  RRD (%) for rilzabrutinib vs. placebo (95% CI), AAS7 = 0: 21.6 %
  Responder n (%), AAS7 = 0: 20 (57.1) n (%)
  AAS7 % Change difference for rilzabrutinib vs. placebo LS Mean (95% CI): −5.01 (−48.85, 38.83) %
  AAS7 % Change from baseline LS Mean (SE): −52.68 (16.72) %
  AAS7 = 0, Non-responder n (%): 15 (57.7) n (%)
  AAS7 = 0, OR (95% CI) for rilzabrutinib vs. placebo: 2.703
  AAS7 = 0, RRD (%) for rilzabrutinib vs. placebo (95% CI): 20.8 %
  AAS7 Post-baseline Mean (SD): 15.95 (20.90)
  Participants with AAS7 = 0, Responder n (%): 11 (42.3) n (%)
Week 4, ITT
  AAS7 % Change from baseline LS Mean (SE): −60.60 (13.93) %
  AAS7 Change difference for rilzabrutinib vs. placebo LS Mean (95% CI): −12.73 (−23.88, −1.58)
  AAS7 Change from baseline LS Mean (SE): −35.34 (4.34)
  AAS7 Post-baseline Mean (SD): 13.70 (17.64)
Week 4, omalizumab-naïve
  Non-responder n (%), AAS7 = 0: 17 (48.6) n (%)
  OR (95% CI) for rilzabrutinib vs. placebo, AAS7 = 0: 1.361
  RRD (%) for rilzabrutinib vs. placebo (95% CI), AAS7 = 0: 7.4 %
  Responder n (%), AAS7 = 0: 18 (51.4) n (%)
  AAS7 % Change difference for rilzabrutinib vs. placebo LS Mean (95% CI): −28.19 (−67.14, 10.77) %
  AAS7 % Change from baseline LS Mean (SE): −58.12 (14.75) %
  AAS7 = 0, Non-responder n (%): 15 (57.7) n (%)
